Experimental data as given in ChEMBL document CHEMBL1201862, “PubChem BioAssay data set” (2004).
Active and inactive are the calls of the source.

Assays:
[1] = molecular target: DNA dC->dU-editing enzyme APOBEC-3A (Homo sapiens, UniProt P31941); experiment: Dose Response confirmation of small molecule APOBEC3A DNA Deaminase Inhibitors via a fluorescence-based single-stranded DNA deaminase assay. [Related pubchem assays (depositor defined):AID493011, AID493024]; type: functional
[2] = molecular target: DNA dC->dU-editing enzyme APOBEC-3G (Homo sapiens, UniProt Q9HC16); type: functional;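 note: Dose-response counterscreen measuring inhibition of APOBEC3G DNA deaminase activity, run while confirming APOBEC3A inhibitors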
[3] = molecular target: T1, Carboxy-terminal domain RNA polymerase II polypeptide A small phosphatase 1 (Homo sapiens, UniProt Q9GZU7); experiment: CTDSP1 inhibitors, concentration-response, biochemical, absorbance readout, ultra-high-throughput screen actives (AID 540297); type: functional
T1 sequence (Q9GZU7 whole entry): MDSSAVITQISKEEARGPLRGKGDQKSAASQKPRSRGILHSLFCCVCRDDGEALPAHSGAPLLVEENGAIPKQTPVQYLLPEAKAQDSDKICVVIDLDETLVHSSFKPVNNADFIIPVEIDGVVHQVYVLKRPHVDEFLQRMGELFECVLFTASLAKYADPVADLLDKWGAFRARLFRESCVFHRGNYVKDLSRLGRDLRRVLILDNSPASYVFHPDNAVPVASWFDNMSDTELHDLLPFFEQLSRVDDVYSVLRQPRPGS

[4] = molecular target: T2, Short transient receptor potential channel 4 (Mus musculus, UniProt Q9QUQ5); experiment: block of DAMGO-driven TRPC4 calcium entry – cell-based, HEK293 TRPC4/mu-opioid, Fluo-4 calcium, dose response (AID 434942); type: functional;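 note: potency of inhibitors blocking the TRPC4 calcium response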
T2 sequence (Q9QUQ5 whole entry): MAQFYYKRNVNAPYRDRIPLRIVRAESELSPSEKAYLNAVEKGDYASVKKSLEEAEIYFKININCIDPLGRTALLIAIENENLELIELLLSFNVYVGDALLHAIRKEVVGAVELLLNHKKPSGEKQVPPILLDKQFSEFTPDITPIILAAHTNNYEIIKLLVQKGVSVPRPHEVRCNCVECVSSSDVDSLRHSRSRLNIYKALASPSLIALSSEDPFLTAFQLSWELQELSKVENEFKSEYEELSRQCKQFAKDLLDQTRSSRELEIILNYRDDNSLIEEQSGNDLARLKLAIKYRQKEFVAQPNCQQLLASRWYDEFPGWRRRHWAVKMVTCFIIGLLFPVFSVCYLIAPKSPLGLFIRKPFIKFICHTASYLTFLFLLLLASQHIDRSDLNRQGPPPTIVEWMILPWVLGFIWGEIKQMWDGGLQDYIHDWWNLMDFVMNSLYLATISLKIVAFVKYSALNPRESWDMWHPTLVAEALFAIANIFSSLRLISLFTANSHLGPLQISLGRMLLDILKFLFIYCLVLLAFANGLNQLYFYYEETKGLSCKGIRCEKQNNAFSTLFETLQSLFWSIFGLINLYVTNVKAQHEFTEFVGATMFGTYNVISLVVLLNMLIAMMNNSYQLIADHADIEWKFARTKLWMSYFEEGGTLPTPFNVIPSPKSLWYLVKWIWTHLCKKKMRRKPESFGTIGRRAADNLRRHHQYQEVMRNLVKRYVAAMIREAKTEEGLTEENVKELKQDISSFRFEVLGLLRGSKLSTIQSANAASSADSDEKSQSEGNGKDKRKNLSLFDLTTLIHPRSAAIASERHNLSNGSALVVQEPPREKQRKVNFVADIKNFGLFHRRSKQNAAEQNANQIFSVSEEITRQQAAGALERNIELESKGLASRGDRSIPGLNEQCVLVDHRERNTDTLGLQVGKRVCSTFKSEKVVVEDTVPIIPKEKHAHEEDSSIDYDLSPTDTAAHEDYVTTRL

[5] = molecular target: Polyadenylate-binding protein 1 (Homo sapiens, UniProt P11940); experiment: blockers of PABP interaction with poly(A) – biochemical, fluorescence polarization, […] (AID 2014)
[6] = molecular target: Eukaryotic translation initiation factor 4H (Homo sapiens, UniProt Q15056); experiment: eIF4H binding inhibition – biochemical, uHTS, fluorescence polarization, translation initiation inhibitor project, primary screen (AID 2012)
[7] = Luminescence Cell-Based Dose Confirmation HTS to Identify Inhibitors of Platelet Dense Granule Release. [Related pubchem assays: 1663 (Primary HTS), 1678 (Summary of Project)]; type: functional
[8] = molecular target: Large T antigen (Simian virus 40, UniProt P03070); type: functional, Betapolyomavirus macacae;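 note: Confirmatory-stage PubChem screen for compounds that inhibit SV40 T antigen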
[9] = molecular target: Luciferin 4-monooxygenase (Photinus pyralis, UniProt P08659); experiment: inhibition of purified Photinus pyralis luciferase – biochemical, luminescence, dose response (AID 1891)
[10] = cells; type: functional
[11] = molecular target: T3, Protein RecA (Mycobacterium tuberculosis, UniProt P9WHJ3); experiment: Fluorescence Cell-Free Homogeneous Dose Retest to Identify Inhibitors of RecA-Intein Splicing Activity. [Related pubchem assays (depositor defined):AID2097, AID2223, AID489010, AID492950]; type: functional
T3 sequence (P9WHJ3 whole entry): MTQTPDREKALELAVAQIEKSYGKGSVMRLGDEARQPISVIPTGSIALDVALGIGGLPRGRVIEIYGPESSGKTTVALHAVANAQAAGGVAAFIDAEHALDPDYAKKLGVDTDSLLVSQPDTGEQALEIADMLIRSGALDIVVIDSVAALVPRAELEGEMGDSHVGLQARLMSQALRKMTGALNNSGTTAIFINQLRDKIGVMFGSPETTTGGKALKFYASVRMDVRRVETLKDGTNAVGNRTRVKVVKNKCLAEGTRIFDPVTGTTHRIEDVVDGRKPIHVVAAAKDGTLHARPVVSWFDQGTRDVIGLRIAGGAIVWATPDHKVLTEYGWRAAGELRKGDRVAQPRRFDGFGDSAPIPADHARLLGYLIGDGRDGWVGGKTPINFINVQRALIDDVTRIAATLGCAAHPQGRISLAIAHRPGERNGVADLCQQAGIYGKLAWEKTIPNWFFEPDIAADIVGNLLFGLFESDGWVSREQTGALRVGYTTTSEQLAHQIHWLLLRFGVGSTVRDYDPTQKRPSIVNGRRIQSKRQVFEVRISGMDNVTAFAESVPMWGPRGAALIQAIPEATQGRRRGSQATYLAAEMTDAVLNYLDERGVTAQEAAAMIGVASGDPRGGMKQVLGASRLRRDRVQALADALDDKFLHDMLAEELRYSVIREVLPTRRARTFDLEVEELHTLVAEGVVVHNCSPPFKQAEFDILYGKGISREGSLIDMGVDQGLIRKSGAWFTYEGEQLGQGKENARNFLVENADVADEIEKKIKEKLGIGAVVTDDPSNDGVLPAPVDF

[12] = microbe, parasite or virus in culture; type: functional; details: Mycobacterium tuberculosis
[13] = molecular target: T4, Replicative DNA helicase DnaB (Mycobacterium tuberculosis, UniProt P9WMR3); experiment: DnaB intein splicing inhibitors, dose response, biochemical, cell-free fluorescence (AID 449749); type: functional
T4 sequence (P9WMR3 whole entry): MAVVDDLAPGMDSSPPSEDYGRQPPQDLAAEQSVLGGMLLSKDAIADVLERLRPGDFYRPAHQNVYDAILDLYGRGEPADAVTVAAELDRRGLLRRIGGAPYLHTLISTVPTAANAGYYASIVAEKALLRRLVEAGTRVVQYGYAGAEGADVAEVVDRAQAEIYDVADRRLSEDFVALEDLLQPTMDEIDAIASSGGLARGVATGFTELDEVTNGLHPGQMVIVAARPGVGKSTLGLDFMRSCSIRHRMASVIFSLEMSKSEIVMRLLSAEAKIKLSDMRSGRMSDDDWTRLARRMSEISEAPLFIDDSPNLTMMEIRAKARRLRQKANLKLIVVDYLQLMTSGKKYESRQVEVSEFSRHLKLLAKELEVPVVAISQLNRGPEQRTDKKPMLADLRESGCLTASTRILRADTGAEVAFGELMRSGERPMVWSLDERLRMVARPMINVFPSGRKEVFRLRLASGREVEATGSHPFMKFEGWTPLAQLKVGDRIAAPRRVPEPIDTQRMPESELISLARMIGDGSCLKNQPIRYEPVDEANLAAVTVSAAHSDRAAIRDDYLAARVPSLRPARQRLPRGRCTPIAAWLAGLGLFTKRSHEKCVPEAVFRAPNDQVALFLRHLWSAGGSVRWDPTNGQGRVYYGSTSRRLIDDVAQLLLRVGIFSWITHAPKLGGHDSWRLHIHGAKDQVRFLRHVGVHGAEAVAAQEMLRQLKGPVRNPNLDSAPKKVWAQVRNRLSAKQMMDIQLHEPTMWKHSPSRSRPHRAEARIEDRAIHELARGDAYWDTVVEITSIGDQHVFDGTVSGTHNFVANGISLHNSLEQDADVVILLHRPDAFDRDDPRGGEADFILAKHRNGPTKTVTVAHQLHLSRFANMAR

[14] = system: Vero; experiment: cells; type: functional; details: Chlorocebus sabaeus
[15] = molecular target: T5, Coagulation factor XII (Homo sapiens, UniProt P00748); type: functional;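 note: activated factor XIIa alpha cleaving a fluorogenic AMC peptide substrate; inhibitor potency from loss of enzyme activity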
T5 sequence (P00748 whole entry): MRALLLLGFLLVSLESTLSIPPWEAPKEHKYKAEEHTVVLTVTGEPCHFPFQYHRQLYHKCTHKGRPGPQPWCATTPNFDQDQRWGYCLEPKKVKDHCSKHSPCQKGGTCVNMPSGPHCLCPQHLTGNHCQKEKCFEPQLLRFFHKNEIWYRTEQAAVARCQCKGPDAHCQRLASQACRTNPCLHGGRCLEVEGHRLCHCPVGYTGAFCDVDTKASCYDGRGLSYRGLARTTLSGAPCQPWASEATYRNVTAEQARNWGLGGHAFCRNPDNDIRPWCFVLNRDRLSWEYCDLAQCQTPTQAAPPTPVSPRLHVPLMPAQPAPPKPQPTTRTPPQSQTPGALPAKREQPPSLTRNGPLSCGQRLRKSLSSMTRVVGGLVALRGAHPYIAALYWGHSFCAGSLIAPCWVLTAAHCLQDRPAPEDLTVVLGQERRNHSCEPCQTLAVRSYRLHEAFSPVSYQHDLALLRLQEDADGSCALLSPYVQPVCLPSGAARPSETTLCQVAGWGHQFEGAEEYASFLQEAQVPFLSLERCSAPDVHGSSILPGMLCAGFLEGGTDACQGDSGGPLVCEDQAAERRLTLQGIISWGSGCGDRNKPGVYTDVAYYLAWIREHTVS

[16] = viability of PTEN-deleted HCT116 cells – cell-based, HCT116 PTEN knockout, dose response (AID 1047); type: functional;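 note: HCT116 colon tumor cells with PTEN knocked out; cells exposed to compound for 60 hours before readout; potency for loss of cell viability measured by luminescence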
[17] = reduction of Shn3 3'UTR-driven luciferase in osteoblasts – cell-based, Clone20 osteoblasts, firefly luciferase, cherry-picked, dose response (AID 624132); type: functional;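 note: firefly luciferase luminescence from reporter carrying the Shn3 3'UTR in osteoblasts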
[18] = non-specific 3'UTR reporter inhibition in Clone20-Shn3RL – cell-based, Renilla luciferase, cherry-picked, counter-screen for Shn3 inhibitor project, dose response (AID 624133); type: functional
[19] = molecular target: Genome polyprotein (dengue virus type 2, UniProt P29990); experiment: flavivirus cap methylation enzyme inhibition – biochemical, confirmation dose response, primary screen (AID 588689); type: functional
[20] = viability of HCT116 lacking mutant beta-catenin – cell-based, human colon tumor, dose response (AID 1045); type: functional;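 note: HCT116 colon tumor cells with beta catenin knocked out; cells exposed to compound for 60 hours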
[21] = molecular target: T2, Short transient receptor potential channel 4; experiment: calcium entry via TRPC4 opening agents – cell-based, HEK293 TRPC4/mu-opioid, Fluo-4 calcium, dose response (AID 434937); type: functional

Polyadenylate-binding protein 1, sequence (P11940 whole entry): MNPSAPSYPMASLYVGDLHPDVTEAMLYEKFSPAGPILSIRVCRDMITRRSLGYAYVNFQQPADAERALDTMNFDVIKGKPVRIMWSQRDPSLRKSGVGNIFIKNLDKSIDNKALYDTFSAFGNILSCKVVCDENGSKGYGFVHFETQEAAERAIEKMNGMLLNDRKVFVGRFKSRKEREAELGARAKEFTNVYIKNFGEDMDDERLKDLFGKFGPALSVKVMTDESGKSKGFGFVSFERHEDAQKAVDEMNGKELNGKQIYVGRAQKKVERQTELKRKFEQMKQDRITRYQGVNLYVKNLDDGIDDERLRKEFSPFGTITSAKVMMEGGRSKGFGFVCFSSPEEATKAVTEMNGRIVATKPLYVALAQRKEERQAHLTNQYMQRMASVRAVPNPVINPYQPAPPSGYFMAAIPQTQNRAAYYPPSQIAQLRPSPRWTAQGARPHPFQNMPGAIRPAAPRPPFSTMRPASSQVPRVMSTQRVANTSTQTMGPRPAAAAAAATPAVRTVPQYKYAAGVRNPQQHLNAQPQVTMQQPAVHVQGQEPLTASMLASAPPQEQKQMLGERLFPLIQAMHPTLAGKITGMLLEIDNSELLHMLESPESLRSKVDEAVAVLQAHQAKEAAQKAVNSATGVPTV
DNA dC->dU-editing enzyme APOBEC-3G, sequence (Q9HC16 whole entry, the tested form may be a part): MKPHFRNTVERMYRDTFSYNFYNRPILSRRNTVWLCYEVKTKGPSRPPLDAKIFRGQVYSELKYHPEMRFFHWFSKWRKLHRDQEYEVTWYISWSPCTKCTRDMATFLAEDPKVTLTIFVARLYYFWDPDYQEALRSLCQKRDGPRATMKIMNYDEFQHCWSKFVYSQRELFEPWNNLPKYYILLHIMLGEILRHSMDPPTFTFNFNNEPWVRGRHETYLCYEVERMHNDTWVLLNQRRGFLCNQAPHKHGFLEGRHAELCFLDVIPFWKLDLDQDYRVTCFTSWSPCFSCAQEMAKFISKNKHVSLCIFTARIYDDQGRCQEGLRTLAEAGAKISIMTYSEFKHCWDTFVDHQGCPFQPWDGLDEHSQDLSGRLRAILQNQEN
Large T antigen, sequence (P03070 whole entry): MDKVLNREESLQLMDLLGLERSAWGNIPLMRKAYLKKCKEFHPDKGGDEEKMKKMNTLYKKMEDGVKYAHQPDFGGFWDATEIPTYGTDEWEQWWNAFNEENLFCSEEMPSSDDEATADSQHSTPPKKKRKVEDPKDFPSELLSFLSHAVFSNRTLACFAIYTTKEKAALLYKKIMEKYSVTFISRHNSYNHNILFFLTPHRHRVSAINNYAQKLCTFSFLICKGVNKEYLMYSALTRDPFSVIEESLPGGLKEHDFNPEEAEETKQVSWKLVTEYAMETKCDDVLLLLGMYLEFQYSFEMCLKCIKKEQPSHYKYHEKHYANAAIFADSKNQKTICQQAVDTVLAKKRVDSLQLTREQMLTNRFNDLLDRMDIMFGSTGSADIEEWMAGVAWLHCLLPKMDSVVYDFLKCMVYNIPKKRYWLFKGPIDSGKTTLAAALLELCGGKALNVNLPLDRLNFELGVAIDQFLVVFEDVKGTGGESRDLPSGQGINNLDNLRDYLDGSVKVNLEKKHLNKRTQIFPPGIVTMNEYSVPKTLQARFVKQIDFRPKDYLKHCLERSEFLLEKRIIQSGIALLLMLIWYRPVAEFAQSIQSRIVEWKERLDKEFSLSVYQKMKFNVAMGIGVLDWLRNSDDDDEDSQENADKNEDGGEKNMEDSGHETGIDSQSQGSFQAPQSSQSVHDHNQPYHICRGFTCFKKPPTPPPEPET
DNA dC->dU-editing enzyme APOBEC-3A, sequence (P31941 whole entry): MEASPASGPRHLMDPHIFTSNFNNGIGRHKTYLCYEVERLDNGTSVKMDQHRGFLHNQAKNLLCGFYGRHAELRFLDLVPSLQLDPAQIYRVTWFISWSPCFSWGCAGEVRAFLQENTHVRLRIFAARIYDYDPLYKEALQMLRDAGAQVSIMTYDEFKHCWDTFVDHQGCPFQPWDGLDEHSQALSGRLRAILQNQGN
Genome polyprotein, sequence (P29990 2492-3391 limits assumed): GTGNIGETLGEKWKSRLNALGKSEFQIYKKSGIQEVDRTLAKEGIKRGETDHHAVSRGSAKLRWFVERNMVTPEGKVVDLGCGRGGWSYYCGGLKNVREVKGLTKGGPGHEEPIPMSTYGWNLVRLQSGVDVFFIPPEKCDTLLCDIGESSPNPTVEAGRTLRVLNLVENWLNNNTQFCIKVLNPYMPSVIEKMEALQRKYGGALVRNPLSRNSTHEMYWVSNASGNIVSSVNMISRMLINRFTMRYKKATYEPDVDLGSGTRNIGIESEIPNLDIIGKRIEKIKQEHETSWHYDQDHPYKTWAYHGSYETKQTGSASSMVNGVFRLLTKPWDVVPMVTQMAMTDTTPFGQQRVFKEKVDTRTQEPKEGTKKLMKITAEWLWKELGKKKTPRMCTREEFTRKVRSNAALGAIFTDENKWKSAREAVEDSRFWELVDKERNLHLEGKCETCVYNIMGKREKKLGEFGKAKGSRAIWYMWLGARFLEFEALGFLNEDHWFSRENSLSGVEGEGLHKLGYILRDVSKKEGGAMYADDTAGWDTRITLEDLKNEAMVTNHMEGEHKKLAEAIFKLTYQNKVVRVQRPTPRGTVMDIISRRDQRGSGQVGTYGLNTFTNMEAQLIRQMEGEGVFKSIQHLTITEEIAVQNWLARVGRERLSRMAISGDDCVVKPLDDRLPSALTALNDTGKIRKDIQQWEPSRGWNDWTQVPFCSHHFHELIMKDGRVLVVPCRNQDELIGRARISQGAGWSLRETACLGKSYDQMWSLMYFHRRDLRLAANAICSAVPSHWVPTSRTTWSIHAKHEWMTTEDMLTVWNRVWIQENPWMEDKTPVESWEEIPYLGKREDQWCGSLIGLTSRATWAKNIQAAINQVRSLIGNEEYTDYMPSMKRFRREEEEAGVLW
Luciferin 4-monooxygenase, sequence (P08659 whole entry): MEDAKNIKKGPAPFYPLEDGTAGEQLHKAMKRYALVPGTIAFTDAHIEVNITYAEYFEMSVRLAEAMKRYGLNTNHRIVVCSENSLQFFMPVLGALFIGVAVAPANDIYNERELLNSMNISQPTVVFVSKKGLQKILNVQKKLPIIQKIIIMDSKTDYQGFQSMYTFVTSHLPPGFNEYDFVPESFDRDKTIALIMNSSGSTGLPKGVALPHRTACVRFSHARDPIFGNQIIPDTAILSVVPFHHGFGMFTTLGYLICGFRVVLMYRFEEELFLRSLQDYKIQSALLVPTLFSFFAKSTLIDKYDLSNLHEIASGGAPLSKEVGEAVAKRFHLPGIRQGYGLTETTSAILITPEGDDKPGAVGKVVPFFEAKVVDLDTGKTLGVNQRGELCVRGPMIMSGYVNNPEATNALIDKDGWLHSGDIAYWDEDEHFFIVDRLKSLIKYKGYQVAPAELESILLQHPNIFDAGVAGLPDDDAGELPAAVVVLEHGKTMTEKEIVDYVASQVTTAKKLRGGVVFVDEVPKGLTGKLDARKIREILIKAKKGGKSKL

Fc1ccccc1Sc1ccccc1CNC1=NCCN1
IC50 [1]: 1.35 µM (active) | IC50 [2]: 2.77 µM (active) | IC50 [3]: 4.12 µM (active) | EC50 [4]: 0.944 µM (active)

CCc1cc2c(=O)c(-c3nc4ccccc4n3C)coc2c(CN2CCCCC2C)c1O (centres undefined)
IC50 [5]: 57.8 µM (active) | IC50 [6]: 15.1 µM (active)

COc1cc(/C=C2/C(=O)NN(c3ccc(Cl)cc3)C2=O)ccc1OC(=O)c1ccco1
EC50 [7]: > 112 µM (not active) | IC50 [8]: 21.6 µM (active) | EC50 [9]: > 112 µM (not active) | IC50 [10]: 16.6 µM (active)

N#CCn1c(CCl)nc2ccccc2c1=O
EC50 [11]: 7.2 µM (active) | CC50 [12]: 30.8 µM (active) | IC50 [8]: 15.1 µM (active) | AC50 [13]: 80.6 µM (active) | CC50 [14]: 14.9 µM (active)

Cc1c(C)n(CCC#N)c2ccccc12
IC50 [15]: > 50 µM (inactive)

CC(=O)c1c(COC(=O)c2cccnc2)nc2ccccc2[n+]1[O-]
IC50 [1]: 1.48 µM (active) | IC50 [2]: 2.09 µM (active)

CC(C)C[C@H](NC(=O)C1CC(=O)N(c2ccc3c(c2)OCO3)C1)C(=O)NCc1ccco1 (some centres undefined)
IC50 [5]: > 100 µM (inactive) | IC50 [6]: 20 µM (active)

Cc1ccc2c(C)c(C(=O)Nc3nnc(C)s3)oc2c1
IC50 [15]: > 50 µM (inactive)

CC(Oc1ccc(F)cc1)C(=O)Nc1cc(S(=O)(=O)N2CCOCC2)ccc1N1CCN(C)CC1 (centres undefined)
IC50 [1]: 4.91 µM (active) | IC50 [2]: 8.29 µM (active)

O=C1ON=C(c2ccccc2)/C1=C/c1ccc(-c2ccccc2[N+](=O)[O-])o1
EC50 [16]: 42.5 µM (active) | AC50 [17]: 7.21 µM (active) | IC50 [8]: 52.8 µM (active) | AC50 [18]: 23.2 µM (active) | IC50 [19]: 11.6 µM (active) | EC50 [20]: 21.4 µM (active)

C[n+]1cccc(/C=N/NC(=O)CC23CC4CC(CC(C4)C2)C3)c1
IC50 [1]: 3.04 µM (active) | IC50 [2]: 3.28 µM (active) | IC50 [5]: 5.14 µM (active) | IC50 [6]: > 100 µM (inactive)

O=C(NCc1ccco1)c1ccc2c(c1)CCO2
IC50 [15]: > 50 µM (inactive)

COc1cc(O)ccc1C(=O)CCc1ccc(O)cc1
IC50 [8]: 13.3 µM (active)

CCOC(=O)C1(CCOc2ccccc2)CCN(Cc2cc(OC)ccc2OC)CC1
EC50 [21]: 3.76 µM (active)

CC/C(=N\NC(=S)NC(C)C)c1ccc(OC(F)F)cc1
IC50 [15]: > 50 µM (inactive)

CCN1C(NCCc2cccnc2)=N[C@@H](c2ccccc2)C(C(=O)OC)=C1C
IC50 [5]: 12 µM (active) | IC50 [6]: > 100 µM (inactive)
